Article PMC6858373 (Scientific Reports, 2019)
Like-named read-outs stand apart in the source and are kept apart here.

How the values were obtained:
[1] = molecular target: full-length P. pyralis luciferase (Photinus pyralis, UniProt P08659, K549A/L550V/N119G/N50D/S548I); format: cell-based
[2] = molecular target: T1, FGF14:Nav1.6 C-tail complex (Homo sapiens, UniProt Q92915+Q9UQD0); experiment: Split-luciferase complementation assay (LCA) in Clone V double stable HEK293 cells; format: cell-based; details: for Split Luciferase Assay Z-score Set 1 / Split Luciferase Assay % Lum Set 1: biological replicate Set 1; for Split Luciferase Assay Z-score Set 1 / Split Luciferase Assay Z-score Set 2: normalized to on-plate 0.3% DMSO controls; for Split Luciferase Assay % Lum Set 1 / Split Luciferase Assay %Lum Set 2: normalized to on-plate 0.3% DMSO controls (n=16 per plate); for Split Luciferase Assay Z-score Set 2 / Split Luciferase Assay %Lum Set 2: biological replicate Set 2; for Split Luciferase Assay %Lum Avg: average of Set 1 and Set 2, normalized to 0.3% DMSO controls
T1 construct: polymerase chain reaction (PCR) amplification of the FGF14 open reading frame (nt 1–855); C-terminal fragment of Nav1.6 (amino acids 1763–1976) fused with CD4ΔC-tail (amino acids 1–395); expressed in transfected cells
T1 sequence (Q92915 1-252 isoform Q92915-2): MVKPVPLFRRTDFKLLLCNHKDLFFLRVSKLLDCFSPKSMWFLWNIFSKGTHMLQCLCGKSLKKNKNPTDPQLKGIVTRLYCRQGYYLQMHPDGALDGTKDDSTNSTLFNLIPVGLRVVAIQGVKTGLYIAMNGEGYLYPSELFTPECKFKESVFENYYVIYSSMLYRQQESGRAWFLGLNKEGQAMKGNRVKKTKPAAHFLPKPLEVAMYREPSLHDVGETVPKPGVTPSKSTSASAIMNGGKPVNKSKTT
T1 sequence (Q9UQD0 1763-1976 limits assumed): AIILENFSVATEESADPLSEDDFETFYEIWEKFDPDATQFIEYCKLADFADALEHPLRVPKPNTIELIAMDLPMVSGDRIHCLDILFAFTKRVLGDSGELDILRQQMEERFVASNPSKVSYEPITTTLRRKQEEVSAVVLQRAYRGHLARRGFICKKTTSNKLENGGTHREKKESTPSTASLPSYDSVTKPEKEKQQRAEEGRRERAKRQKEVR

[3] = CC_NCI screening, normalized to on-plate 0.3% DMSO controls
[4] = CC_NCI screening, full-length luciferase counter-screen luminescence, normalized to on-plate 0.3% DMSO controls
[5] = CC_NCI screening, full-length luciferase counter-screen, normalized to on-plate 0.3% DMSO controls
[6] = CC_NCI screening, LCA luminescence

full-length P. pyralis luciferase, sequence (P08659 whole entry N50D/N119G/S548I/K549A/L550V, looked up): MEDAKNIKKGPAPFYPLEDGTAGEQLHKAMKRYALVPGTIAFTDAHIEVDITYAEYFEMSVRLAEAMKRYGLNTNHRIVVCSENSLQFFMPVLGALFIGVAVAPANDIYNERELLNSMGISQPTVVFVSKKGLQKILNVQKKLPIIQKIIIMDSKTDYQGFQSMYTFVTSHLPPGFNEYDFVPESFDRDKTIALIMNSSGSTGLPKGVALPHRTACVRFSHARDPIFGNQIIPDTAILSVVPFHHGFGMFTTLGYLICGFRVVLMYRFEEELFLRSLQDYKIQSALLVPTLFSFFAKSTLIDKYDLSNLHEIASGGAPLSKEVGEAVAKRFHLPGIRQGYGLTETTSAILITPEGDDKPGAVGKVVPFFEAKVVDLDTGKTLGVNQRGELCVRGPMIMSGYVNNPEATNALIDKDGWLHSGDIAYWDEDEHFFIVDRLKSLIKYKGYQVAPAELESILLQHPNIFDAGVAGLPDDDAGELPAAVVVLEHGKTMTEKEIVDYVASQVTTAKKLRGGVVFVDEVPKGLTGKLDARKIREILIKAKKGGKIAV

SMILES | Luciferase Assay % Lum (full-length luciferase counter-screen) [1, 3] | Luciferase Assay Z-score (full-length luciferase counter-screen) [1, 3] | Split Luciferase Assay Z-score Set 1 ([2]; CC_NCI screening) | Split Luciferase Assay % Lum Set 1 ([2]; CC_NCI screening) | Split Luciferase Assay Z-score Set 2 ([2]; CC_NCI screening) | Split Luciferase Assay %Lum Set 2 ([2]; CC_NCI screening) | Split Luciferase Assay %Lum Avg [2] | Toxicity Assay % Fluor (CTB cell viability fluorescence) (Clone V cells) | Toxicity Assay Z-score (CTB cell viability) (Clone V cells) | Luciferase Assay % Lum [1, 4] | Luciferase Assay Z-score [1, 5] | Split Luciferase Assay % Lum Set 1 [2, 6] | Split Luciferase Assay %Lum Set 2 [2, 6] | Split Luciferase Assay Z-score Set 1 ([2]; CC_NCI screening, LCA) | Split Luciferase Assay Z-score Set 2 ([2]; CC_NCI screening, LCA) | Split Luciferase Assay %Lum Avg ([2]; CC_NCI screening) | Toxicity Assay % Fluor (Clone V cells; human, 16 h, 30 µM) | Toxicity Assay Z-score (Clone V cells; human, 16 h, 30 µM) | other results
NS(=O)(=O)c1nn2cc(-c3ccccc3)nc2s1 [AEG 3482] | 93.96% | -0.77 | 1.78 | 122.08% | 1.09 | 113.39% | 117.74% | 105.28% | 0.74 | – | – | – | – | – | – | – | – | – | –
N#C/C(=C/c1ccc(O)c(O)c1)C(=O)NCc1ccccc1 [AG 490] | – | – | – | – | – | – | – | – | – | 85.62% | -1.84 | 118.82% | 120.68% | 1.52 | 1.68 | 119.75% | – | – | Toxicity Assay % Fluor (Clone V cells): 89.42%; Toxicity Assay Z-score (Clone V cells): -1.48
NC(=O)c1ncn([C@@H]2O[C@H](CO)[C@@H](O)[C@H]2O)c1N [AICAR] | 107.04% | 0.90 | 0.03 | 100.34% | 0.84 | 110.27% | 105.31% | 108.29% | 1.16 | – | – | – | – | – | – | – | – | – | –
O=C1NC(=O)/C(=C/c2ccc(-c3ccc(F)cc3O)o2)S1 [AS 252424] | 69.90% | -3.86 | -3.31 | 59.03% | -4.84 | 40.57% | 49.80% | 99.49% | -0.07 | – | – | – | – | – | – | – | – | – | –
O=C1NC(=O)/C(=C/c2ccc3c(c2)OCO3)S1 [AS-041164] | 84.77% | -1.95 | -1.38 | 82.95% | 0.50 | 106.11% | 94.53% | 113.38% | 1.87 | – | – | – | – | – | – | – | – | – | –
O=C1NC(=O)/C(=C/c2ccc3c(c2)OC(F)(F)O3)S1 [AS-604850] | 62.77% | -4.77 | -2.78 | 65.55% | -1.96 | 75.94% | 70.75% | – | 2.25 | – | – | – | – | – | – | – | – | – | –
CCN(CCO)CCCOc1ccc2c(Nc3cc(CC(=O)Nc4cccc(F)c4)[nH]n3)ncnc2c1 [AZD1152-HQPA] | – | – | – | – | – | – | – | – | – | 84.20% | -2.02 | 87.29% | 100.91% | -1.03 | 0.07 | 94.10% | 93.28% | -0.94 | –
NCCCNCCSP(=O)(O)O [Amifostine] | – | – | – | – | – | – | – | – | – | – | – | 109.04% | 116.51% | 0.73 | 1.34 | 112.78% | 93.47% | -0.91 | Luciferase Assay % Lum [1]: 101.20%; Luciferase Assay Z-score [1]: 0.15
CC(C)(C#N)c1cc(Cn2cncn2)cc(C(C)(C)C#N)c1 [Anastrozole] | – | – | – | – | – | – | – | – | – | 100.06% | 0.01 | 89.47% | 99.87% | -0.85 | -0.01 | 94.67% | 95.38% | -0.65 | –
O=[As]O[As]=O (centres unmarked) [Arsenic trioxide] | – | – | – | – | – | – | – | – | – | 96.86% | -0.40 | 20.98% | 29.13% | -6.39 | -5.77 | 25.05% | – | – | Toxicity Assay % Fluor (Clone V cells): 84.44%; Toxicity Assay Z-score (Clone V cells): -2.18
CNC(=O)c1ccccc1Sc1ccc2c(/C=C/c3ccccn3)n[nH]c2c1 [Axitinib] | – | – | – | – | – | – | – | – | – | 24.49% | -9.67 | 32.94% | 31.21% | -5.42 | -5.60 | 32.07% | – | – | Toxicity Assay % Fluor (Clone V cells): 91.66%; Toxicity Assay Z-score (Clone V cells): -1.17
C=C(c1ccc(C(=O)O)cc1)c1cc2c(cc1C)C(C)(C)CCC2(C)C [BEXAROTENE] | – | – | – | – | – | – | – | – | – | 99.04% | -0.12 | 129.69% | 99.87% | 2.40 | -0.01 | 114.78% | 86.80% | -1.85 | –
Cn1c(=O)n(-c2ccc(C(C)(C)C#N)cc2)c2c3cc(-c4cnc5ccccc5c4)ccc3ncc21 [BEZ 235] | – | – | – | – | – | – | – | – | – | 98.68% | -0.17 | 91.64% | 100.91% | -0.68 | 0.07 | 96.28% | 90.66% | -1.31 | –
